Measurements as given in US12332198B2, “Metabolite based diagnostics for periprosthetic joint infection” (priority 2022, dated 2025).
Values joined by “and” are separate entries in the source; they are usually repeats but may differ in a detail not shown here. Identical values can stand only once. “Also recorded” adds a separate entry of the source.

Assays:
rats = settings: 2,000 mg/kg body weight in rats; cited from earlier work
P. aeruginosa = settings: previous studies; cited from earlier work
P. aeruginosa PAO1 = assay: Microtiter plate assay: planktonic growth (OD600) and crystal violet staining of biofilm (OD590); format: cell-based, Pseudomonas aeruginosa
Procedure: Cadaverine (Sigma Aldrich) 5- or 10-mM stocks were prepared in LB and sterile filtered with a […] filter. […] […] Outer edge wells were filled with PBS to avoid “edge effects” due to evaporation. OD600 was measured to quantify planktonic growth. Liquid media was gently aspirated, and wells were washed three times with 150 μL PBS. Adhered biofilm was stained with 125 μL of 0.1% crystal violet (CV) in 20% ethanol in ddH2O (v/v) for 30 min. CV was gently aspirated, wells were washed five times with 150 μL PBS, and CV was solubilized with 150 μL 33% glacial acetic acid in ddH2O (v/v) by shaking gently at 100 rpm at room temperature for 25 min. CV was quantified at OD590 to report biofilm accumulation. LB blanks were averaged and subtracted from readings. Control PAO1 wells were averaged, and all measurements were normalized to control measurements per plate and reported as percent change from control.

[1] = tested on: P. aeruginosa PAO1 biofilm; assay: Confocal laser scanning microscopy (CLSM) of biofilm accumulation; format: cell-based, Pseudomonas aeruginosa; settings: 3.30 mM cadaverine, 24 hrs, SYTO 9, n=5
Procedure: PAO1 overnight cultures were diluted to OD600=0.17 in LB with 0 or 3.30 mM cadaverine in 35×10 mm confocal dishes and incubated statically at 37° C. in 5% CO2 for 24 hrs. Liquid media was aspirated and adhered biofilm was stained with SYTO 9 for 10 min and washed with PBS. CLSM stitched images were collected (n=5) with a laser power of 4.5% under 10× magnification using an Olympus FluoView FV10i CLSM. Mean gray scale value and surface area coverage were quantified using Fiji.

HT29 intestinal cells = settings: up to 70 mM in HT29 intestinal cells; cited from earlier work
PAO1 Td-tomato or Xen41 = assay: Culture imaging by photo, dissecting microscope and IVIS (biofilm morphology); format: cell-based, Pseudomonas aeruginosa; settings: 3.30 mM cadaverine
Procedure: PAO1 Td-tomato or Xen41 cultures were grown similarly to CLSM cultures described above. iPhone 8 images were taken in a controlled well-lit environment. The air-liquid interface was imaged using an Amscope dissecting microscope with an MU500 camera. Xen41 light emission was detected with an IVIS Lumina II system (Caliper LifeSciences) as an indicator of biofilm activity.

[2] = PAO1 Td-tomato, cadaverine 24 hrs
[3] = pre-formed biofilm: grown 24 hrs, then cadaverine for additional 24 hrs

Question: Which acute oral toxicity (rats) does the source give for `NCCCCCN` [Cadaverine] here?
Answer: Its acute oral toxicity is “low acute oral toxicity”.

Question: And the “effect on effectiveness of β-lactams” value (P. aeruginosa)?
Answer: Its value is “enhances the effectiveness of many β-lactams”.

Question: And the “bactericidal or bacteriostatic effect” value (P. aeruginosa PAO1; OD600, 0-3.30 mM cadaverine)?
Answer: Its value is “not bactericidal; also recorded: did not have a bactericidal or bacteriostatic effect”.

Question: What about the “biofilm accumulation decrease (crystal violet OD590), percent change from control” value (P. aeruginosa PAO1; [2]) of the same compound?
Answer: The value was 37%.

Question: And the “planktonic growth increase (OD600), percent change from control” value (P. aeruginosa PAO1; [2])?
Answer: The value was 4%.

Question: And the “planktonic growth increase (OD600), percent change from control” value (P. aeruginosa PAO1; WT PAO1, 0-3.30 mM cadaverine from initiation, 24 hrs, maximal (3.30 mM))?
Answer: Its value is 20.5±4.2% and 21%.

Question: What about the “biofilm accumulation (crystal violet OD590) at low concentration” value (P. aeruginosa PAO1; WT PAO1, 25 μM cadaverine, 24 hrs) of the same compound?
Answer: Its value is “increased marginally”.

Question: And the “biofilm accumulation decrease (crystal violet OD590), percent change from control” value (P. aeruginosa PAO1; [3])?
Answer: Its value is 39.8±2.5% and 40%.

Question: And the “planktonic growth increase (OD600), percent change from control” value (P. aeruginosa PAO1; [3])?
Answer: The value was 5.8±1.8% and 6%.

Question: And the “reduction in biofilm accumulation by mean grayscale value” [1]?
Answer: Its value is 54.5±26.0% and 55%.

Question: What about the “reduction in biofilm accumulation by surface area coverage” value [1] of the same compound?
Answer: Its value is 79.8±55.1% and 80%.

Question: What about the cytotoxicity (HT29 intestinal cells) of the same compound?
Answer: The cytotoxicity was “negligible cytotoxicity”.

Question: What about the biofilm morphology (PAO1 Td-tomato or Xen41; 24 hrs, standing liquid culture, PAO1 Td-tomato) of the same compound?
Answer: Its biofilm morphology is “more aggregate-like, in a pellicle”.

Question: What about the “metabolic state of pellicle biofilm (IVIS luminescence)” value (PAO1 Td-tomato or Xen41; PAO1 Xen41, air-liquid interface) of the same compound?
Answer: The value was “metabolically active”.
